Measured values reported in patent US7901879B2, “Lactoferrin in the treatment of malignant neoplasms and other hyperproliferative diseases” (Agennix Incorporated, priority 2002, dated 2011).

Tested on: murine squamous carcinoma cell line (SCCVII)
Experiment: SCCVII floor-of-mouth tumor growth, oral rhLF and/or cisplatin (Example 6)
Format: in vivo, immunocompetent C3H mice
Protocol: A murine squamous carcinoma cell line (SCCVII) was injected into the floor of the mouth through the neck skin of immunocompetent C3H mice (Day 0). […] Tumors were measured in three dimensions with calipers.
Tumor-bearing mice were randomized into a control group and seven groups receiving rhLF and/or cisplatin. RhLF (4 mg; 200 mg/Kg) was administered once daily by oral gavage for 8 days on days 5 through 12. Cisplatin was administered as a single dose of 5 mg/Kg given intraperitoneally either at the start of rhLF (day 5), in the middle (day 8) or at the end (day 12) of rhLF therapy. Animals were sacrificed on day 12 post-implantation and the residual tumor masses were measured and processed for later additional analyses.

## N.N.[Cl][Pt][Cl] [CP, Cisplatin]
Cisplatin 5 mg/kg i.p. on day 5, with rhLF 200 mg/kg oral days 5-12 where combined
  TGI (%) Relative to Placebo: 68%
Cisplatin 5 mg/kg i.p. on day 8, with rhLF 200 mg/kg oral days 5-12 where combined
  TGI (%) Relative to Placebo: 6%
Cisplatin 5 mg/kg i.p. on day 12, with rhLF 200 mg/kg oral days 5-12 where combined
  TGI (%) Relative to Placebo: 42%
Pooled cisplatin day 5, 8 and 12 groups
  TGI (%) Relative to Placebo: 38%
